For test [1], the system named is Plasmopara viticola. The test is described as follows: Infection by P. viticola on vine leaf discs. The test is classed as in vivo, Plasmopara viticola on vine leaf discs (cv. Glera). As to conditions: peptide 50 μM, 12 days after inoculation. How it is done:
Infection tests were performed on vine leaf disks (cv. Glera) of 1 cm in diameter. Twenty leaf discs obtained from randomly collected leaves from different plants were placed with the lower side facing upwards on moistened sterile paper placed in Petri dishes (15 cm diameter). Approximately 0.1 mL of each aqueous solution containing the peptide (50 μM) was distributed on each leaf disc. Aqueous suspensions of P. viticola sporangia, collected from infected vine plants, were diluted to obtain 3-5×10^5 sporangia/mL and distributed on the leaf discs. The plates containing the leaf discs were incubated in the dark at room temperature (22-23° C.). The incidence was calculated 12 days after inoculation as the ratio of the number of sporulating discs to the total number of discs inoculated. Control plates contained water-treated leaf discs. Two or three plates were used for each treatment. The data obtained were statistically analysed by applying the Anova and Bonferroni-Holmes one-way test.

The test system of test [2] is Botrytis cinerea. The test is classed as cell-based, Botrytis cinerea (strain PM10).
Test [3] relates to Pyricularia oryzae. Also noted: species or system Pyricularia oryzae strain IT10 on barley leaves. Conditions: in vivo.
The test system of test [4] is Fusarium graminearum. The arrangement: species or system Fusarium graminearum on ears of wheat. Conditions: in vivo.
Test [5] relates to Pyricularia oryzae. The test is classed as cell-based.
The test system of test [6] is Fusarium graminearum. The test is classed as cell-based.
Test [7] has as its system Pyricularia oryzae. The test is classed as cell-based, Pyricularia oryzae (strain IT10).
For test [8], the system named is Fusarium graminearum. The test is classed as cell-based, Fusarium graminearum (strain 8/1).

Experimental findings from patent publication US20220330548A1, “Peptides with Phytosanitary Activities” (Universita' Degli Studi Di Padova, priority 2021, published 2022) are described below.

[ ]: non-standard residue; d: D form. The star is where a group is joined. Octanoyl = CCCCCCCC(=O)*; Aib = CC(C)(N)C(=O)O

With “1-octanoyl-Aib-Gly-Leu-Aib-Gly-Gly-Leu-Aib-Lys(HCl)-Ile-Leu-NH2 (Octanoyl-[Aib]GL[Aib]GGL[Aib]KIL-NH2; also: Lys9 as HCl salt) [SEQ. ID. No. 6]”, the “incidence of Plasmopara viticola infection on vine leaf discs” value in test [1] is “significantly decreases the P. viticola infection”.
Regarding “1-octanoyl-Aib-Gly-Leu-Aib-Gly-Gly-Leu-Aib-Lys(HCl)-Ile-Lol [SEQ. ID. No. 5]”, in test [2], the “decrease of growth of Botrytis cinerea compared to the untreated control” value is on record as “at least 95%”. Besides, the “incidence of Plasmopara viticola infection on vine leaf discs” value in test [1] is on record as “significantly decreases the P. viticola infection”.
On to “1-octanoyl-Aib-Lys(HCl)-Leu-Aib-Lys(HCl)-Gly-Leu-Aib-Lys(HCl)-Ile-Lol [SEQ. ID. No. 1]”, for which the “decrease of infected (lesion) area of barley leaves compared to control leaves” value in test [3] is on record as “at least 95%”. In addition, in test [4], the “decrease of infection (infected spikelets) in treated ears compared to untreated control ears” value is on record as “at least 95%”; the “further decrease of infection compared with treatment with PEP4 and PEP4-rink” value is 10-30%; the “protection of the ear of wheat against infection caused by Fusarium graminearum” value is reported as “protects the ear of wheat against infection caused by Fusarium graminearum”; the “protection of the ear of wheat compared with the known peptide PEP4” value is recorded as “greater”. In addition, in test [5], the “microscopic observation of Pyricularia oryzae spores after treatment” value is “germination is inhibited and the cytoplasm is agglutinated”; the “viability of Pyricularia oryzae spores (autofluorescence of agglutinated cytoplasm)” value is “the cells are no longer viable”. In test [6], the “microscopic observation of Fusarium graminearum after treatment” value is “germination is inhibited and the cytoplasm is agglutinated”.
Turning to “1-octanoyl-Leu-Aib-Lys(HCl)-Ile-Leu-NH2 [SEQ. ID. No. 10]”, the “decrease of growth of Botrytis cinerea compared to the untreated control” value in test [2] is “at least 95%”. Further, in test [7], the “decrease of growth of Pyricularia oryzae compared to the untreated control” value is “at least 95%”. Moreover, the “decrease of growth of Fusarium graminearum compared to the untreated control” value in test [8] is “at least 95%”.
